Source: ChEMBL document CHEMBL3813674 (Medchemcomm, 2016)
≈ marks a conversion by molar mass, not a printed value.

Tests used:
Type in all cases: physicochemical
[1] = Solubility of the compound in ChCl-LA1 solvent at HBA:HBD 1:3 molar ratio and 37 degC measured after 24 hrs by HPLC analysis
[2] = Solubility of the compound in TPAB-LA1 solvent at 37 degC measured after 24 hrs by HPLC analysis
[3] = Solubility of the compound in ChCl-P solvent at HBA:HBD 1:4 molar ratio and 37 degC measured after 24 hrs by HPLC analysis
[4] = Solubility of the compound in ChCl-LA1 solvent at HBA:HBD 1:2 molar ratio and 37 degC measured after 24 hrs by HPLC analysis
[5] = Solubility of the compound in ChCl-LA1 solvent at 37 degC measured after 24 hrs by HPLC analysis
[6] = Solubility of the compound in ChCl-LA2 solvent at 37 degC measured after 24 hrs by HPLC analysis
[7] = Solubility of the compound in ChCl-P solvent at HBA:HBD 1:2 molar ratio and 37 degC measured after 24 hrs by HPLC analysis
[8] = Solubility of the compound in ChCl-U solvent at 37 degC measured after 24 hrs by HPLC analysis
[9] = Solubility of the compound in BE-LA1 solvent at 37 degC measured after 24 hrs by HPLC analysis
[10] = Solubility of the compound in ChCl-LA1 solvent at HBA:HBD 1:4 molar ratio and 37 degC measured after 24 hrs by HPLC analysis
[11] = Solubility of the compound in EAC-LA2 solvent at 37 degC measured after 24 hrs by HPLC analysis
[12] = Solubility of the compound in ChCl-GA2 solvent at 37 degC measured after 24 hrs by HPLC analysis
[13] = Solubility of the compound in ChCl-OA solvent at 37 degC measured after 24 hrs by HPLC analysis
[14] = Solubility of the compound in levulinic acid at 37 degC measured after 24 hrs by HPLC analysis
[15] = Solubility of the compound in ChCl-P solvent at HBA:HBD 1:5 molar ratio and 37 degC measured after 24 hrs by HPLC analysis
[16] = Solubility of the compound in water at 37 degC measured after 24 hrs by HPLC analysis; settings: for solubility at 24 h: water
[17] = Solubility of the compound in ChCl-LA1 solvent at HBA:HBD 1:5 molar ratio and 37 degC measured after 24 hrs by HPLC analysis
[18] = Solubility of the compound in ChCl-G solvent at 37 degC measured after 24 hrs by HPLC analysis
[19] = Solubility of the compound in EAC-P solvent at 37 degC measured after 24 hrs by HPLC analysis
[20] = Solubility of the compound in EAC-EG solvent at 37 degC measured after 24 hrs by HPLC analysis
[21] = Solubility of the compound in ChBt-LA1 solvent at 37 degC measured after 24 hrs by HPLC analysis
[22] = Solubility of the compound in ChCl-GA1 solvent at 37 degC measured after 24 hrs by HPLC analysis
[23] = Solubility of the compound in ChCl-P solvent at HBA:HBD 1:3 molar ratio and 37 degC measured after 24 hrs by HPLC analysis
[24] = Solubility of the compound in ChCl-EG solvent at 37 degC measured after 24 hrs by HPLC analysis
[25] = Solubility of the compound in TPAB-P solvent at 37 degC measured after 24 hrs by HPLC analysis
[26] = Solubility of the compound in 1,2-propanediol at 37 degC measured after 24 hrs by HPLC analysis
[27] = Solubility of the compound in ChCl-MA1 solvent at 37 degC measured after 24 hrs by HPLC analysis
[28] = Half life of compound in water at 2.5 mg by HPLC method
[29] = Half life of the compound at optimal pH
[30] = Half life of compound in ChCl-P solvent at 2.5 mg by HPLC method
[31] = Ratio of half life of compound in ChCl-P solvent to half life of compound in water; settings: buffer

Work on CC(=O)Nc1ccc(O)cc1 [ACETAMINOPHEN] yielded a solubility [1] of 217.4 mg/mL, a solubility [2] of 316.5 mg/mL (≈ 2090 mM) and a solubility [3] of 267.9 mg/mL. For the same compound, the solubility [4] was 279 mg/mL, the solubility [5] was 279 mg/mL (≈ 1850 mM) and the solubility [6] was 254 mg/mL (≈ 1680 mM). The solubility [7] was 324 mg/mL, the solubility [8] was 169.7 mg/mL (≈ 1120 mM) and the solubility [9] was 212.1 mg/mL (≈ 1400 mM). It also gave a solubility [10] of 208.4 mg/mL, a solubility [11] of 141.2 mg/mL (≈ 934 mM) and a solubility [12] of 224.8 mg/mL (≈ 1490 mM). The solubility [13] was 186.7 mg/mL (≈ 1240 mM), the solubility [14] was 144.5 mg/mL (≈ 956 mM) and the solubility [15] was 246.2 mg/mL. The solubility at 24 h [16] was 19.9 mg/mL (≈ 132 mM), the solubility [17] was 199.8 mg/mL and the solubility [18] was 140.3 mg/mL (≈ 928 mM). It also gave a solubility [19] of 188.6 mg/mL (≈ 1250 mM), a solubility [20] of 173.9 mg/mL (≈ 1150 mM) and a solubility [21] of 89.07 mg/mL (≈ 589 mM). The solubility [22] was 238.1 mg/mL (≈ 1580 mM), the solubility [23] was 324 mg/mL and the solubility [24] was 287 mg/mL (≈ 1900 mM). For the same compound, the solubility [25] was 352.7 mg/mL (≈ 2330 mM), the solubility [26] was 235.1 mg/mL (≈ 1560 mM) and the solubility [27] was 266.3 mg/mL (≈ 1760 mM).
CC(=O)Oc1ccccc1C(=O)O [ASPIRIN] gave a solubility [1] of 113.1 mg/mL, a solubility [2] of 163.7 mg/mL (≈ 909 mM) and a solubility [3] of 179.2 mg/mL. The half-life [28] was 2.13 h, the half-life [29] was < 336 h and the solubility [4] was 135 mg/mL. It also gave a solubility [5] of 135 mg/mL (≈ 749 mM), a solubility [6] of 91.3 mg/mL (≈ 507 mM) and a solubility [7] of 202 mg/mL. For the same compound, the half-life [30] was 17.5 h, the solubility [8] was 147.9 mg/mL (≈ 821 mM) and the solubility [9] was 149.8 mg/mL (≈ 831 mM). The solubility [10] was 109.9 mg/mL, the solubility [11] was 44.57 mg/mL (≈ 247 mM) and the solubility [12] was 67.43 mg/mL (≈ 374 mM). For the same compound, the solubility [13] was 86.32 mg/mL (≈ 479 mM), the solubility [14] was 95.63 mg/mL (≈ 531 mM) and the solubility [15] was 168.7 mg/mL. It also gave a solubility ([16]; buffer, 24 h) of 3.3 mg/mL (≈ 18.3 mM), a solubility [17] of 104.4 mg/mL and a solubility [18] of 42.48 mg/mL (≈ 236 mM). It also gave a solubility [19] of 82.18 mg/mL (≈ 456 mM), a solubility [20] of 56.84 mg/mL (≈ 315 mM) and a solubility [21] of 37.06 mg/mL (≈ 206 mM). For the same compound, the solubility [22] was 76.28 mg/mL (≈ 423 mM), the Ratio [31] was 8.2 and the solubility [23] was 184.6 mg/mL. The solubility [24] was 139 mg/mL (≈ 772 mM), the solubility [25] was 220.2 mg/mL (≈ 1220 mM) and the solubility [26] was 134.3 mg/mL (≈ 745 mM). For the same compound, the solubility [27] was 126.3 mg/mL (≈ 701 mM).
CC(C)Cc1ccc(C(C)C(=O)O)cc1 (stereo unspecified) [IBUPROFEN] gave a solubility [2] of 194.8 mg/mL (≈ 944 mM), a solubility [3] of 226.1 mg/mL and a solubility [5] of 78.69 mg/mL (≈ 381 mM). For the same compound, the solubility [6] was 17.95 mg/mL (≈ 87 mM), the solubility [7] was 183.3 mg/mL and the solubility [8] was 4.5 mg/mL (≈ 21.8 mM). It also gave a solubility [9] of 280.2 mg/mL (≈ 1360 mM), a solubility [11] of 20.67 mg/mL (≈ 100 mM) and a solubility [12] of 9.49 mg/mL (≈ 46 mM). The solubility [13] was 31.51 mg/mL (≈ 153 mM), the solubility [14] was 159.4 mg/mL (≈ 773 mM) and the solubility [15] was 267.6 mg/mL. It also gave a solubility at 24 h [16] of 0.07 mg/mL (≈ 0.339 mM), a solubility [18] of 3.82 mg/mL (≈ 18.5 mM) and a solubility [19] of 141.6 mg/mL (≈ 686 mM). For the same compound, the solubility [20] was 21.42 mg/mL (≈ 104 mM), the solubility [21] was 35.05 mg/mL (≈ 170 mM) and the solubility [22] was 25.38 mg/mL (≈ 123 mM). The solubility [23] was 191.7 mg/mL, the solubility [24] was 24.29 mg/mL (≈ 118 mM) and the solubility [25] was 383.4 mg/mL (≈ 1860 mM). For the same compound, the solubility [26] was 380 mg/mL (≈ 1840 mM) and the solubility [27] was 25.87 mg/mL (≈ 125 mM).
